In paper PMC12063423, “Identification of the methionine transporter MetQ in Streptococcus suis and its contribution to virulence and biofilm formation” (Veterinary Research, 2025):

Target: T1, MetQ (SSU1577) (Streptococcus suis, UniProt A0A0H3N1C6)
T1 construct: gene SSUBM407_1651; mature protein aa 31-283 without signal peptide (1-29) and lipobox Cys30; codon-optimised, pET16b, E. coli BL21(DE3); full-length precursor 283 aa
Test: isothermal titration calorimetry, one-site model
Type: binding
Conditions: PBS pH 7.3, 25 °C; 38.8 µM protein in cell, 200 µM ligand in syringe

T1 sequence (A0A0H3N1C6 entry or part of it): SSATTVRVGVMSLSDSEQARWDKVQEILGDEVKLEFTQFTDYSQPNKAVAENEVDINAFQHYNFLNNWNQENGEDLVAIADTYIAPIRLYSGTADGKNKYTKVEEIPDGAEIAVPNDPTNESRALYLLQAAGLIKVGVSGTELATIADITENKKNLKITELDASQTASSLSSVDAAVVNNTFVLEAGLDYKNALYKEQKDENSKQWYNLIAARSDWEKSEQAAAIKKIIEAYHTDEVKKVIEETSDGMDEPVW

Compound `CSCC[C@H](N)C(=O)O` [L-methionine] has a Kd of 7.1 µM.
